Data published in patent publication US12233161B1, “Lipids and lipid nanoparticle formulations” (LONGUIDE BIOPHARMA CORPORATION, priority 2024, dated 2025).

System: mice
Test: In vivo delivery of FLuc-mRNA lipid nanoparticles in mice, in vivo imaging (IVIS)
Settings: for IVIS / % of organ targeting: Fluc-mRNA LNP, formulation, molar ratio and N/P as in the table; for organ targeting specificity (spleen or lung), in words: Table 3, Fluc-mRNA, various formulations
Method: After the preparation was completed, the preparation was injected intramuscularly (mice rectus femoris muscle of the thigh), intravenously (mice tail vein), or intraperitoneal injection or subcutaneous injection (subcutaneous on the back), with approximately 75 μL per mouse, for a total of 3 mice. After a certain time of injection, in vivo imaging (PerkinElmer, IVIS Lumina III) was performed. 10-15 minutes before imaging, 200 μL of 15 mg/mL D-Luciferin working solution was injected intraperitoneally, and the imaging analysis was performed using an in vivo imager.

Row | SMILES | IVIS (route IM, organ not given) | IVIS (route IV, organ: body) | % of organ targeting (route IV, organ: liver) [%] | IVIS (route IV, organ: liver) | % of organ targeting (route IV, organ: lung) [%] | IVIS (route IV, organ: lung) | % of organ targeting (route IV, organ: spleen) [%] | IVIS (route IV, organ: spleen) | IVIS (route IV, organ not given) | % of organ targeting (route IM, organ: liver) [%] | IVIS (route IM, organ: liver) | % of organ targeting (route IM, organ: lung) [%] | IVIS (route IM, organ: lung) | IVIS (route IM, organ: muscle) | % of organ targeting (route IM, organ: spleen) [%] | IVIS (route IM, organ: spleen) | organ targeting specificity (spleen or lung), in words
1 | CCCCCCCCC(CCCCCC)C(=O)OCCCCCCNC(=O)C(O)CN(CCCN(C)CCCN(CC(O)C(=O)NCCCCCCOC(=O)C(CCCCCC)CCCCCCCC)CC(O)C(=O)NCCCCCCOC(=O)C(CCCCCC)CCCCCCCC)CC(O)C(=O)NCCCCCCOC(=O)C(CCCCCC)CCCCCCCC (centres unmarked) [Compound L0370] | 1.68E+07 | 1.43E+07 | 4.65 | 8.65E+05 | 17.97 | 3.34E+06 | 77.39 | 1.44E+07 | – | – | – | – | – | – | – | – | –
2 | CCCCCCCCC(CCCCCC)C(=O)OCCCCCCNC(=O)C(O)CN(CCN(C)CCN(CC(O)C(=O)NCCCCCCOC(=O)C(CCCCCC)CCCCCCCC)CC(O)C(=O)NCCCCCCOC(=O)C(CCCCCC)CCCCCCCC)CC(O)C(=O)NCCCCCCOC(=O)C(CCCCCC)CCCCCCCC (centres unmarked) [Compound L0371] | 3.02E+07 | 1.98E+07 | 8.16 | 2.58E+06 | 8.29 | 2.62E+06 | 83.54 | 2.64E+07 | – | – | – | – | – | – | – | – | –
3 | CCCCCCCCC(CCCCCC)C(=O)OCCCCCCNC(=O)C(O)CN(CCCN(CC(O)C(=O)NCCCCCCOC(=O)C(CCCCCC)CCCCCCCC)CC(O)C(=O)NCCCCCCOC(=O)C(CCCCCC)CCCCCCCC)CCCN(CC(O)C(=O)NCCCCCCOC(=O)C(CCCCCC)CCCCCCCC)CC(O)C(=O)NCCCCCCOC(=O)C(CCCCCC)CCCCCCCC (centres unmarked) [Compound L0372] | 7.60E+06 | – | – | – | – | – | – | – | 4.83E+08 | – | – | – | – | – | – | – | –
4 | CCCCCCCCC(CCCCCC)C(=O)NCCOC(=O)C(O)CN(CCCN(C)CCCN(CC(O)C(=O)OCCNC(=O)C(CCCCCC)CCCCCCCC)CC(O)C(=O)OCCNC(=O)C(CCCCCC)CCCCCCCC)CC(O)C(=O)OCCNC(=O)C(CCCCCC)CCCCCCCC (centres unmarked) [Compound L0373] | 8.38E+06 | 7.79E+07 | 11.58 | 9.41E+06 | 13.53 | 1.10E+07 | 74.89 | 6.08E+07 | – | – | – | – | – | – | – | – | –
5 | CCCCCCCCC(CCCCCC)C(=O)NCCOC(=O)C(O)CN(CCN(C)CCN(CC(O)C(=O)OCCNC(=O)C(CCCCCC)CCCCCCCC)CC(O)C(=O)OCCNC(=O)C(CCCCCC)CCCCCCCC)CC(O)C(=O)OCCNC(=O)C(CCCCCC)CCCCCCCC (centres unmarked) [Compound L0374] | 6.46E+07 | – | – | – | – | – | – | – | – | – | – | – | – | – | – | – | –
6 | CCCCCCCCC(CCCCCC)C(=O)NCCOC(=O)C(O)CN(CCCN(CC(O)C(=O)OCCNC(=O)C(CCCCCC)CCCCCCCC)CC(O)C(=O)OCCNC(=O)C(CCCCCC)CCCCCCCC)CCCN(CC(O)C(=O)OCCNC(=O)C(CCCCCC)CCCCCCCC)CC(O)C(=O)OCCNC(=O)C(CCCCCC)CCCCCCCC (centres unmarked) [Compound L0375] | 1.41E+05 | – | – | – | – | – | – | – | 3.72E+05 | – | – | – | – | – | – | – | –
7 | CCCCCCCCC(CCCCCC)C(=O)OCCCCNC(=O)C(O)CN(CCCN(C)CCCN(CC(O)C(=O)NCCCCOC(=O)C(CCCCCC)CCCCCCCC)CC(O)C(=O)NCCCCOC(=O)C(CCCCCC)CCCCCCCC)CC(O)C(=O)NCCCCOC(=O)C(CCCCCC)CCCCCCCC (centres unmarked) [Compound L0376] | – | 5.58E+07 | 14.62 | 1.64E+07 | 20.78 | 2.32E+07 | 64.60 | 7.23E+07 | – | 30.06 | 2.21E+05 | 5.80 | 4.27E+04 | 2.06E+07 | 64.14 | 4.72E+05 | strong targeting specificity to deliver to spleen
8 | CCCCCCCCC(CCCCCC)C(=O)OCCCCNC(=O)C(O)CCN(CCCN(C)CCN(CC(O)C(=O)NCCCCOC(=O)C(CCCCCC)CCCCCCCC)CC(O)C(=O)NCCCCOC(=O)C(CCCCCC)CCCCCCCC)C(O)C(=O)NCCCCOC(=O)C(CCCCCC)CCCCCCCC (centres unmarked) [Compound L0377] | – | 1.81E+08 | 38.23 | 6.08E+07 | 4.20 | 6.67E+06 | 57.57 | 9.15E+07 | – | 35.08 | 1.59E+05 | 6.58 | 2.98E+04 | 3.71E+07 | 58.34 | 2.64E+05 | strong targeting specificity to deliver to spleen
9 | CCCCCCCCC(CCCCCC)C(=O)OCCCCNC(=O)C(O)CN(CCCN(CC(O)C(=O)NCCCCOC(=O)C(CCCCCC)CCCCCCCC)CC(O)C(=O)NCCCCOC(=O)C(CCCCCC)CCCCCCCC)CCCN(CC(O)C(=O)NCCCCOC(=O)C(CCCCCC)CCCCCCCC)CC(O)C(=O)NCCCCOC(=O)C(CCCCCC)CCCCCCCC (centres unmarked) [Compound L0378] | – | 2.77E+08 | 45.43 | 5.93E+07 | 0.60 | 7.82E+05 | 53.97 | 7.04E+07 | – | 37.15 | 1.82E+05 | 12.65 | 6.19E+04 | 3.09E+07 | 50.19 | 2.45E+05 | strong targeting specificity to deliver to spleen
10 | CCCCCCC(CCCCCC)C(=O)NCCNC(=O)C(O)CN(CCCN(C)CCCN(CC(O)C(=O)NCCNC(=O)C(CCCCCC)CCCCCC)CC(O)C(=O)NCCNC(=O)C(CCCCCC)CCCCCC)CC(O)C(=O)NCCNC(=O)C(CCCCCC)CCCCCC (centres unmarked) [Compound L0379] | – | – | – | – | – | – | – | – | 1.63E+09 | 35.55 | 1.37E+06 | 3.16 | 1.22E+05 | 2.68E+08 | 61.28 | 2.37E+06 | strong targeting specificity to deliver to spleen
11 | CCCCCCC(CCCCCC)C(=O)NCCNC(=O)C(O)CN(CCN(C)CCN(CC(O)C(=O)NCCNC(=O)C(CCCCCC)CCCCCC)CC(O)C(=O)NCCNC(=O)C(CCCCCC)CCCCCC)CC(O)C(=O)NCCNC(=O)C(CCCCCC)CCCCCC (centres unmarked) [Compound L0380] | – | 7.98E+09 | 96.36 | 2.14E+09 | 0.40 | 8.80E+06 | 3.24 | 7.18E+07 | – | 61.06 | 3.14E+07 | 1.54 | 7.90E+05 | 4.58E+08 | 37.40 | 1.92E+07 | –
12 | CCCCCCC(CCCCCC)C(=O)NCCNC(=O)C(O)CN(CCCN(CC(O)C(=O)NCCNC(=O)C(CCCCCC)CCCCCC)CC(O)C(=O)NCCNC(=O)C(CCCCCC)CCCCCC)CCCN(CC(O)C(=O)NCCNC(=O)C(CCCCCC)CCCCCC)CC(O)C(=O)NCCNC(=O)C(CCCCCC)CCCCCC (centres unmarked) [Compound L0381] | 1.90E+07 | 1.57E+08 | 86.51 | 8.07E+07 | 0.46 | 4.31E+05 | 13.03 | 1.22E+07 | – | – | – | – | – | – | – | – | –
13 | CCCCCCCC(CCCCCCC)OC(=O)CCCNC(=O)C(O)CN(CCCN(C)CCCN(CC(O)C(=O)NCCCC(=O)OC(CCCCCCC)CCCCCCC)CC(O)C(=O)NCCCC(=O)OC(CCCCCCC)CCCCCCC)CC(O)C(=O)NCCCC(=O)OC(CCCCCCC)CCCCCCC (centres unmarked) [Compound L0382] | – | 1.60E+09 | 67.69 | 3.25E+08 | 9.82 | 4.72E+07 | 22.49 | 1.08E+08 | – | 35.27 | 5.75E+04 | 7.39 | 1.20E+04 | 4.83E+07 | 57.34 | 9.34E+04 | –
14 | CCCCCCCC(CCCCCCC)OC(=O)CCCNC(=O)C(O)CN(CCN(C)CCN(CC(O)C(=O)NCCCC(=O)OC(CCCCCCC)CCCCCCC)CC(O)C(=O)NCCCC(=O)OC(CCCCCCC)CCCCCCC)CC(O)C(=O)NCCCC(=O)OC(CCCCCCC)CCCCCCC (centres unmarked) [Compound L0383] | – | 2.00E+09 | 68.14 | 4.62E+08 | 2.23 | 1.52E+07 | 29.63 | 2.01E+08 | – | 29.05 | 1.91E+05 | 10.07 | 6.63E+04 | 1.78E+08 | 60.88 | 4.01E+05 | strong targeting specificity to deliver to spleen
